Data reported in US10836770B2, “Imidazopyridazine compounds useful as modulators of IL-12, IL-23 and/or INF alpha responses” (priority 2016, dated 2020).
Like-named read-outs stand apart in the source and are kept apart here.

Columns and labels:
[1] = biological target: T1, recombinantly expressed His-tagged protein corresponding to amino acids 575-869 of human Tyk2 (Homo sapiens, UniProt P29597); experiment: Probe displacement assay (scintillation proximity, radiolabeled probe); type: binding
T1 construct: made in house
Method: The probe displacement assay is conducted as follows: In a […], test compounds along with recombinantly expressed His-tagged protein corresponding to amino acids 575-869 of human Tyk2 (sequence shown below) at 2.5 nM, 40 nM ((R)—N-(1-(3-(8-methyl-5-(methylamino)-8H-imidazo[4,5-d]thiazolo[5,4-b]pyridin-2-yl)phenyl)ethyl)-2-([^3H]methylsulfonyl)benzamide) (preparation described below) and 80 μg/mL Copper His-Tag scintillation proximity assay beads (Perkin Elmer, Catalog #RPNQ0095) in 50 mM HEPES, pH 7.5, containing 100 μg/mL bovine serum albumin and 5% DMSO were incubated for 30 minutes at room temperature. […] The IC50 value is defined as the concentration of test compound required to inhibit radiolabeled probe binding by 50%.
Protein Sequence of recombinant Hig-tagged Tyk2 (575-869):
The preparation of radiolabeled probe, (R)—N-(1-(3-(8-methyl-5-(methylamino)-8H-imidazo[4,5-d]thiazolo[5,4-b]pyridin-2-yl)phenyl)ethyl)-2-([^3H]methylsulfonyl)benzamide, was performed as described below: […]

[2] = tested on: IL-23-stimulated Kit225 T cells with STAT-dependent luciferase reporter; experiment: Kit225 T cell assay, IL-23 stimulated STAT-dependent luciferase reporter; type: cell-based, human
Method: (§1) Kit225 T cells with a stably-integrated STAT-dependent luciferase reporter were plated in RPMI (GIBCO) containing 10% heat-inactivated FBS (GIBCO) and 100 U/mL PenStrep (GIBCO). The cells were then stimulated with either 20 ng/mL human recombinant IL-23 or 200 U/mL human recombinant IFNα (PBL InterferonSource) for 5-6 hours. Luciferase expression was measured using the STEADY-GLO® Luciferase Assay System (PROMEGA®) according to the manufacturer's instructions.

[3] = tested on: IFNα-stimulated Kit225 T cells with STAT-dependent luciferase reporter; experiment: Kit225 T cell assay, IFNα stimulated STAT-dependent luciferase reporter; type: cell-based, human
Method: as §1

[4] = Homo sapiens, KIT225, read-out: IL-23 Kit225 Reporter, LE (IC50, uM)
[5] = Homo sapiens, KIT225, read-out: IFNa Kit225 Reporter, LE (IC50, uM)

T1 sequence (P29597 with tags, fused parts or gaps): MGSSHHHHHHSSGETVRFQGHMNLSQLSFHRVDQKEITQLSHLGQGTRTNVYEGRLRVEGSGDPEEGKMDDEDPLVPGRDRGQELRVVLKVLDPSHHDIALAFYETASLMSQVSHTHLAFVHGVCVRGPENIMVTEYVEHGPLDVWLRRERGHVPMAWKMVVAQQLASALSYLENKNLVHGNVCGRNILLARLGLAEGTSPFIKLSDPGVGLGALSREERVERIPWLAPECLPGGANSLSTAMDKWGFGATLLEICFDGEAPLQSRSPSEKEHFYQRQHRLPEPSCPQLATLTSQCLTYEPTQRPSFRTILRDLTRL

Row | SMILES | EC50 [1] [µM] | IC50 [2, 4] [µM] | IC50 [3, 5] [µM] | EC50 ([1]; 2.5 nM Tyk2 (575-869), 40 nM [3H] probe, 30 minutes at room temperature, read-out: Probe Displacement EC50) [µM] | IC50 ([2]; Kit225 T cells, 20 ng/mL human recombinant IL-23, 5-6 hours, luciferase, read-out: IL-23 Kit225 Reporter, LE (IC50)) [µM] | IC50 ([3]; Kit225 T cells, 200 U/mL human recombinant IFNα, 5-6 hours, luciferase, read-out: IFNa Kit225 Reporter, LE (IC50)) [µM]
1 | CNc1cc(Nc2cnn(C)c2C(=O)Nc2ccccc2)nn2c(C(=O)NC3CC3)cnc12 [Example 38] | 0.05 | 4.46 | 12.5 | – | – | –
2 | CNc1cc(Nc2cc(C(=O)Nc3ccccc3)n(C)n2)nn2c(C(=O)NC3CC3)cnc12 [Example 42] | 0.36 | 12.5 | 12.5 | – | – | –
3 | CNc1cc(Nc2cn(C)nc2C(=O)NC2CC2)nn2c(C(=O)NC3CC3)cnc12 [Example 16] | 0.00449 | 0.25 | 0.14 | – | – | –
4 | CNC(=O)c1ncsc1Nc1cc(NC)c2ncc(C(=O)NC3CC3)n2n1 [Example 77] | – | – | – | 0.02 | 0.57 | 0.22
5 | CCNC(=O)c1nscc1Nc1cc(NC)c2ncc(C(=O)NC3CC3)n2n1 [Example 62] | 0.0093 | 0.54 | 0.18 | – | – | –
6 | CNC(=O)c1nscc1Nc1cc(NC)c2ncc(C(=O)NC3CC3)n2n1 [Example 59, 4-((3-(cyclopropylcarbamoyl)-8-(methylamino)imidazo[1,2-b]pyridazin-6-yl)amino)-N-methylisothiazole-3-carboxamide] | 0.00193 | 0.01 | 0.03 | – | – | –
7 | CNc1cc(Nc2cn(C)nc2C(=O)Nc2cccc(C)c2)nn2c(C(=O)NC3CC3)cnc12 [Example 22] | 0.02 | 0.27 | 0.35 | – | – | –
8 | CCNC(=O)c1nscc1Nc1cc(NC)c2ncc(C(=O)NC3CCC3)n2n1 [Example 71] | 0.00809 | 0.2 | 0.21 | – | – | –
9 | CNc1cc(Nc2cn(C)nc2C(=O)Nc2cccnc2)nn2c(C(=O)NC3CC3)cnc12 [Example 5] | 0.01 | 0.34 | 0.07 | – | – | –
10 | CCNC(=O)c1nscc1Nc1cc(NC)c2ncc(C(=O)N[C@@H]3C[C@@H]3F)n2n1 [Example 73] | 0.02 | 0.16 | 0.2 | – | – | –
11 | CNC(=O)c1nn(C)cc1Nc1cc(NC)c2ncc(C(=O)NC3CC3)n2n1 [Example 1, N-cyclopropyl-6-((1-methyl-3-(methylcarbamoyl)-1H-pyrazol-4-yl)amino)-8-(methylamino)imidazo[1,2-b]pyridazine-3-carboxamide] | 0.02 | 1.32 | 0.37 | – | – | –
12 | CNc1cc(Nc2ccsc2C(=O)Nc2ccc(F)cc2)nn2c(C(=O)NC3CC3)cnc12 [Example 45] | 0.02 | 0.22 | 0.13 | – | – | –
13 | CCn1cc(Nc2cc(NC)c3ncc(C(=O)NC4CC4)n3n2)c(C(=O)NC)n1 [Example 28, N-cyclopropyl-6-((1-ethyl-3-(methylcarbamoyl)-1H-pyrazol-4-yl)amino)-8-(methylamino)imidazo[1,2-b]pyridazine-3-carboxamide] | 0.02 | 0.21 | 0.4 | – | – | –
14 | CNc1cc(Nc2ccoc2C(=O)NC(C)C)nn2c(C(=O)NC3CC3)cnc12 [Example 54] | 0.00606 | 0.17 | 0.05 | – | – | –
15 | CNc1cc(Nc2cn(C)nc2C(=O)Nc2ccc3c(c2)OCO3)nn2c(C(=O)NC3CC3)cnc12 [Example 13] | 0.00777 | 0.33 | 0.21 | – | – | –
16 | CNc1cc(Nc2ccsc2C(=O)Nc2cccnc2)nn2c(C(=O)NC3CC3)cnc12 [Example 46] | 0.008 | 0.1 | 0.12 | – | – | –
17 | CCNC(=O)c1nscc1Nc1cc(NC)c2ncc(C(=O)NCCOC)n2n1 [Example 72] | 0.00578 | 0.14 | 0.07 | – | – | –
18 | CNC(=O)c1n[nH]cc1Nc1cc(NC)c2ncc(C(=O)NC3CC3)n2n1 [Example 32, N-cyclopropyl-6-((3-(methylcarbamoyl)-1H-pyrazol-4-yl)amino)-8-(methylamino)imidazo[1,2-b]pyridazine-3-carboxamide] | 0.03 | 0.83 | 1.65 | – | – | –
19 | CNc1cc(Nc2cn(C)nc2C(=O)Nc2ccc(OC)nc2)nn2c(C(=O)NC3CC3)cnc12 [Example 11] | 0.02 | 0.52 | 0.48 | – | – | –
20 | [2H]C([2H])([2H])NC(=O)c1nscc1Nc1cc(NC)c2ncc(C(=O)N[C@@H]3C[C@@H]3F)n2n1 [Example 68] | 0.00278 | 0.14 | 0.05 | – | – | –
21 | CNc1cc(Nc2csnc2C(=O)Nc2ccc(F)cc2)nn2c(C(=O)NC3CC3)cnc12 [Example 66] | 0.01 | 0.4 | 0.11 | – | – | –
